Columns and labels:
[1] = system: TALL-104 CTL human leukemia cells; test: Cytotoxic T-lymphocyte; type: cell-based; details: 100 μM
HDAC6 = biological target: T1, HDAC6 (Homo sapiens, UniProt Q9UBN7); test: HDAC isozyme panel at BPS Bioscience, HDAC6; type: biochemical; details: read-out: % inhibition of HDAC6
T1 sequence (Q9UBN7 1-1215): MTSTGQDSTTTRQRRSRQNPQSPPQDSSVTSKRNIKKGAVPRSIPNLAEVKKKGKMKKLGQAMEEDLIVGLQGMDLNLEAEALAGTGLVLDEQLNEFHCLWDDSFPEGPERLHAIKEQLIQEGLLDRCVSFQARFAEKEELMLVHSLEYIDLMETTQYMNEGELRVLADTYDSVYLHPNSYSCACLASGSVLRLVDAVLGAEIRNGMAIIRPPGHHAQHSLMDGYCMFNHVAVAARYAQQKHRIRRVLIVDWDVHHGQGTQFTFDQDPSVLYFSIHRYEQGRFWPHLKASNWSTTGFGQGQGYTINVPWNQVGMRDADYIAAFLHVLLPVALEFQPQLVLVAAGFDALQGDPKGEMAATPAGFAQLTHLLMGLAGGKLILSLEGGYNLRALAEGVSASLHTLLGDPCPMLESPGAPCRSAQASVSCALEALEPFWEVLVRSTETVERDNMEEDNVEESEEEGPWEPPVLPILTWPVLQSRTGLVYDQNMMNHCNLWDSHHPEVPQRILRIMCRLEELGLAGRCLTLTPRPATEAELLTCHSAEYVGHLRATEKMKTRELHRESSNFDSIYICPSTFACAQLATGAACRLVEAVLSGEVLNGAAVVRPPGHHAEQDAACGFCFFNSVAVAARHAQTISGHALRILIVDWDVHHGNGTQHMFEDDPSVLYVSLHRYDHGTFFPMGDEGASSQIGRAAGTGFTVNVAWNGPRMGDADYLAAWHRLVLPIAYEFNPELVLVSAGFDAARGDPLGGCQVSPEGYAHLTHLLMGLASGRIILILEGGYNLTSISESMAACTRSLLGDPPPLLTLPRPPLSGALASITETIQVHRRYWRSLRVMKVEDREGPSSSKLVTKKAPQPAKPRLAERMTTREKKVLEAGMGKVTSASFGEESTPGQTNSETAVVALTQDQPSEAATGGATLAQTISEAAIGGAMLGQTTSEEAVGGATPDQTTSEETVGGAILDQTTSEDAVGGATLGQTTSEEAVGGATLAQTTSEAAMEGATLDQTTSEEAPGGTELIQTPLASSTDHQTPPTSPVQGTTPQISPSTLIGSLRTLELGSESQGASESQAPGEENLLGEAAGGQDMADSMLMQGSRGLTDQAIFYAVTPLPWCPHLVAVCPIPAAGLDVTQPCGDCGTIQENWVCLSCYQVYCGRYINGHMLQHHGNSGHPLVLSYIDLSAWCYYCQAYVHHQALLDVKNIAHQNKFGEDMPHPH

HDAC10 = biological target: T2, HDAC10 (Homo sapiens, UniProt Q969S8); test: HDAC isozyme panel at BPS Bioscience, HDAC10; type: biochemical; details: read-out: % inhibition of HDAC10
T2 sequence (Q969S8 1-669): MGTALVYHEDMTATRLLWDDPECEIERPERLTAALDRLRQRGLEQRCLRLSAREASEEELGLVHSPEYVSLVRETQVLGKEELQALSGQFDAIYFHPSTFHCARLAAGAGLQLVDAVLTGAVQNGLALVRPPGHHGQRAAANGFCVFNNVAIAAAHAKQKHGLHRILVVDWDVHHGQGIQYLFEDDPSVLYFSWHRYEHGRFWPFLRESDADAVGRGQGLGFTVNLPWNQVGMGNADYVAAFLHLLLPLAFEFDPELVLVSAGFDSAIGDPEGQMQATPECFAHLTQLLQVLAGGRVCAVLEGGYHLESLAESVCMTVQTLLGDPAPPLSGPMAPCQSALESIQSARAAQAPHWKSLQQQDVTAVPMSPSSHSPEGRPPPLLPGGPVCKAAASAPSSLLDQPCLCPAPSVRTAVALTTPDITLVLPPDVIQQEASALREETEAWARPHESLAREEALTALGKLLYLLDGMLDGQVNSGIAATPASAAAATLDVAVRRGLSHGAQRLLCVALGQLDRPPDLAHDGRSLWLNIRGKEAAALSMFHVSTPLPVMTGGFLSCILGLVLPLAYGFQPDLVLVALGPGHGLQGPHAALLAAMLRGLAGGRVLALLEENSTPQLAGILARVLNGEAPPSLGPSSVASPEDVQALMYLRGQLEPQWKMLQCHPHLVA

HDAC3 = HDAC3 (Homo sapiens, UniProt O15379); test: HDAC isozyme panel at BPS Bioscience, HDAC3; type: biochemical; details: read-out: % inhibition of HDAC3
Chain of HDAC3 (O15379 whole entry): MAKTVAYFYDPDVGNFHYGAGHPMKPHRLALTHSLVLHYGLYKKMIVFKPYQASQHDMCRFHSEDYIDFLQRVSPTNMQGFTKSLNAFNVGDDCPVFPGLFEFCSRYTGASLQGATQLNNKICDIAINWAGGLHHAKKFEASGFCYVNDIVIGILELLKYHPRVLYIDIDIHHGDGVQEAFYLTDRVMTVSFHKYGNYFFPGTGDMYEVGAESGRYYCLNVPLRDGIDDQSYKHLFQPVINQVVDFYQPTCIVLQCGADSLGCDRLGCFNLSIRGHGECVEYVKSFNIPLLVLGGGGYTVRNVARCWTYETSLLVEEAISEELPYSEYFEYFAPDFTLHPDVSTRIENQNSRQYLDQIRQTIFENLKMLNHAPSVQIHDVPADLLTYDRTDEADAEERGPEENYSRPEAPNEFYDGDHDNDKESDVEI
Chain of HDAC3 (Q9Y618 395-489 partner limits assumed): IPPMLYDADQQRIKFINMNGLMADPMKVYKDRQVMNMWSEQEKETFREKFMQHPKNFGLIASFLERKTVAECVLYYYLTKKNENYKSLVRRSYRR

HDAC1 = HDAC1 (Homo sapiens, UniProt Q13547); test: HDAC isozyme panel at BPS Bioscience, HDAC1; type: biochemical; details: read-out: % inhibition of HDAC1
Chain of HDAC1 (Q13547 whole entry): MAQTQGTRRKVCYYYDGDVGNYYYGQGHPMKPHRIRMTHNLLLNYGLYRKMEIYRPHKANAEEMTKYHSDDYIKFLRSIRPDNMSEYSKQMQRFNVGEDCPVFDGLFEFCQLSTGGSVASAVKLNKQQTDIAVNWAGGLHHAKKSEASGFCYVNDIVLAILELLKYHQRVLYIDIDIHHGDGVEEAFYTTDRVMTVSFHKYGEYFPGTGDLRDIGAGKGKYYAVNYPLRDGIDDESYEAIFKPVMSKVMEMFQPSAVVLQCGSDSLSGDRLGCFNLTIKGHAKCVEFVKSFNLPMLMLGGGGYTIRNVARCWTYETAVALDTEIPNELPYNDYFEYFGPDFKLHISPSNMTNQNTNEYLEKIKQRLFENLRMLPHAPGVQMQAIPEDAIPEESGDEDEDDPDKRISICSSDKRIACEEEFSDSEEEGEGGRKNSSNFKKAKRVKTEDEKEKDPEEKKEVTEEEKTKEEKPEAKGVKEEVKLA

Structure (SMILES)	augmentation of CD3-stimulated anti-LAMP fluorescence increases (lytic granule exocytosis) [1] [%]	inhibition at 10 µM (HDAC6) [%]	inhibition at 10 µM (HDAC10) [%]	inhibition at 10 µM (HDAC3) [%]	inhibition at 10 µM (HDAC1) [%]
CCOC(=O)NCCCC(=O)Nc1ccc(CO[Si](C)(C)C(C)(C)C)cc1 [Compound 27, Ethyl (4-((4-(((tert-butyldimethylsilyl)oxy)methyl)phenyl)amino)-4-oxobutyl)carbamate]	26	–	–	–	–
CCOC(=O)NCCCC(=O)Nc1ccc(O[Si](C)(C)C(C)(C)C)cc1 [Compound 28, Ethyl (4-((4-((tert-butyldimethylsilyl)oxy)phenyl)amino)-4-oxobutyl)carbamate]	71	–	–	–	–
O=C(CCCCCCC(=O)Nc1ccccc1)NO [SAHA, suberoylanilide hydroxamic acid]	–	100	100	99 ± 0.7	100 ± 0.3

— publication PMC5065774 (Bioorganic & medicinal chemistry, 2016)
